Consider one compound from patent US7829555B1, “Drug targeting” (The University of Manchester, priority 1997, dated 2010).

Data set [1] in a line: Reduction initiated release of aspirin, product analysis (HPLC) following γ-radiolysis. Type of data set: physicochemical. Conditions: reduction by (CH3)2C.OH radical; N2O-saturated solution, quinone 100 μM, 2-propanol 8.3M (50%, v/v), pH 7.4. How it is done:
The reduction initiated release of aspirin from the indoloquinone-acetyl salicylic acid conjugate of Example 5 was investigated by product analysis (HPLC) following γ-radiolysis of N2O-saturated solutions containing the quinone (100 μM) and 2-propanol (8.3M, 50%, v/v) at pH 7.4.
The radiation chemical yield (G) of the (CH3)2C.OH radical in N2O-saturated 2-propanol/water mixtures was determined by ferricyanide reduction to be G((CH3)2C.OH)=0.67±0.02 μmol J^−1 in 2-propanol/water (50%, v/v) and 0.72±0.03 μmol J^−1 in 1 M 2-propanol respectively. […] Loss of the parent quinone (G(−Q)=1.63±0.01 μmol J^−1) parallel the formation of the aspirin leaving group (LG) with G(LG)=1.40±0.15 μmol J^−1.
Indolequinone solutions were saturated with N2O gas in gas-tight vials before irradiation in a ^60Co source. […] A dose rate of 6-6.5 Gy min^−1 was used, as determined by Fricke dosimetry and radiation chemical yields were corrected for the absorbed dose in the various alcohol-water mixtures employed.
Product analysis following γ-radiolysis was performed by gradient HPLC separation on a 100 mm×4.6 mm base-deactivated reverse-phase column (Hichrom RPB, Hichrom, Reading, U.K.). […] Detection was at 232 nm using a Waters 486 detector (Watford, U.K.) and concentrations were determined from peak areas using Waters Maxima software.

Data set [2] in a line: Pharmacokinetics of the indoloquinone-acetyl salicylic acid conjugate in carrageenin air pouch rats (HPLC of blood, exudate, urine). Type of data set: in vivo, male Wistar albino rats. Conditions: rats with carrageenin air pouch, 20 mg conjugate injected, exudate and urine collected after 2 or 4 hours. How it is done:
Pharmacokinetics of the indoloquinone-acetyl salicylic acid conjugate of Example 5 were studied as follows:
Three groups of male Wistar albino rats (n=5) received sterile air dorsally (day 1). After two days a further 20 ml sterile air were administered. On day 5, 2 ml of a 1% carrageenin in sterile saline was injected directly into the air pouch. Animals were housed in metabolic cages. 100 mg of the indoloquinone-aspirin conjugate of Example 5 were suspended in ethanol (2 ml). 50 mg acetyl salicylic acid was dissolved in 2 ml ethanol. 2 ml ethanol was used as a control. 18 ml sterile water were added to each sample. On day 9, each animal was injected with 4 ml of solution as follows: Group A—20 mg indoloquinone-aspirin conjugate Group B—10 mg acetyl salicylic acid Group C—ethanol (control) The animals were then returned to their cages for periods of either 2 (nos. 1, 2 and 3 from each group) or 4 hours (nos. 4 and 5 from each group). After this time the animals were anaesthetized and blood and exudate collected. Available urine was also collected.

With `COC1=CC(=O)c2c(c(COC(=O)c3ccccc3OC(C)=O)c(C)n2C)C1=O` [Example 5, 3-(2-Acetoxybenzoyloxy)methyl-1,2-dimethyl-5-methoxyindole-4,7-dione], in data set [1], the “Formation of the aspirin leaving group, radiation chemical yield G(LG)” value was 1.40 ± 0.15 µmol/J and the “Loss of the parent quinone, radiation chemical yield G(−Q)” value came to 1.63 ± 0.01 µmol/J. The “Cleavage of conjugate in collected samples (HPLC)” value in data set [2] is recorded as “cleaved to liberate acetyl salicylic acid”.
